The record followed here is paper PMC12430708, “Design, Synthesis, and In Vitro and In Silico Study of New Hybrid 1-(2-(4-Arylthiazol-2-yl)hydrazineylidene)-5,6-dihydro-4H-pyrrolo[3,2,1-ij]quinolin-2-ones as Factor Xa and Factor XIa Inhibitors” (Molecules, 2025).

Broadly, the inhibition is the relative decrease from the control value, in per cent. As a reminder, the IC50 is the point on the concentration scale where inhibition reaches its midpoint.

Bounds are passed on as bounds.

Common to all, as to format: biochemical
The target in one test is factor Xa (Homo sapiens, UniProt P00742). Briefly: Inhibition of factor Xa, hydrolysis kinetics of chromogenic substrate S2765. The settings on record: for inhibition at 30 µM / Percent Inhibition at 30 μM ± SEM (n = 3), Xa: 30 μM compound, factor Xa 5 nmol/L, S2765 200 µmol/L, negative values denote percent activation; for inhibition at 30 µM: read-out: Percent Inhibition at 30 μM ± SEM (n = 3), Xa; for IC50: substrate S2765, buffer solution, read-out: IC50, μM ± SEM (n = 3), Xa. From the text: (§1) The inhibition of the blood coagulation factors Xa and XIa or plasmin by the synthesized compounds 5a–o was studied by measuring the kinetics of hydrolysis of substrates specific for each of these enzymes in the presence of the compounds. A specific low-molecular-weight chromogenic substrate S2765 (Z-D-Arg-Gly-Arg-pNA·2HCl) was used in the case of factor Xa, substrate S2366 (pyroGlu-Pro-Arg-pNA·HCl) was used for factor XIa, and S2288 (H-D-Ile-Pro-Arg-pNA·2HCl) was used for plasmin (all from Chromogenix, West Chester, PA, USA). A buffer containing 140 mM NaCl, 20 mM HEPES, and 0.1% PEG 6000 (pH 8.0) was placed in the wells of a 96-well plate, followed by the addition of factor Xa or XIa (final concentration 5 nmol·L^−1) or plasmin (final concentration 10 nmol L^−1); the substrate S2765, S2366, or S2288 (final concentration 200 µmol·L^−1); and a solution of the test compound in DMSO (final concentration 30 µmol·L^−1, the DMSO content in the well was no more than 2%). The kinetics of the formation of p-nitroaniline was measured using an Eppendorf PlateReader AF2200 microplate reader (Eppendorf, Hamburg, Germany) by the absorption of light with a wavelength of 405 nm. The initial rate of substrate degradation was determined from the initial slope of the 4-nitroaniline formation curve.
factor Xa, sequence (P00742 235-488 limits assumed): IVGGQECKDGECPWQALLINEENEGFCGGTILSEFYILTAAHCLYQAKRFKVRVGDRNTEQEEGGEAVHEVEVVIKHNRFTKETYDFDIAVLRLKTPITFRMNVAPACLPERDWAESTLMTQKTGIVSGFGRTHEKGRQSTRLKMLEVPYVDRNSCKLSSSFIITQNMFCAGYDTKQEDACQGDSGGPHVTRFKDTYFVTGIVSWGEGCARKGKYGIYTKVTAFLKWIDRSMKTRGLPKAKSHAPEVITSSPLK
factor Xa, sequence (P00742 41-179 partner limits assumed): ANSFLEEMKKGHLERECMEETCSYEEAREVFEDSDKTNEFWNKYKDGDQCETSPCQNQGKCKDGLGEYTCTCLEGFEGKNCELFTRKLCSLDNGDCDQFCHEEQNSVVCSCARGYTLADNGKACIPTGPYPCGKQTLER
(§2) The absolute value of negative inhibition values denotes percent activation.
(§3) The data obtained were processed using the GraphPad Prism 8.0.1 (244) and OriginPro 8 software.

For a further test, the target named is factor XIa (Homo sapiens, UniProt P03951). Briefly: Inhibition of factor XIa, hydrolysis kinetics of chromogenic substrate S2366. The settings on record: for inhibition at 30 µM / Percent Inhibition at 30 μM ± SEM (n = 3), XIa: 30 μM compound, factor XIa 5 nmol/L, S2366 200 µmol/L, negative values denote percent activation; for inhibition at 30 µM: read-out: Percent Inhibition at 30 μM ± SEM (n = 3), XIa; for IC50: substrate S2366, buffer solution, read-out: IC50, μM ± SEM (n = 3), XIa.
factor XIa, sequence (P03951 388-625 limits assumed): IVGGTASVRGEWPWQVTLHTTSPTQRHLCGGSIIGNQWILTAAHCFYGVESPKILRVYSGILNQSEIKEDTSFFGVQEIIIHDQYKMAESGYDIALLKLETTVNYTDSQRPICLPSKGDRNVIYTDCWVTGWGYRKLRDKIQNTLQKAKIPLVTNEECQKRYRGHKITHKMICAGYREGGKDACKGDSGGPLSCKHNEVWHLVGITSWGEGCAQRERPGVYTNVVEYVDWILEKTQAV
factor XIa, sequence (P03951 19-387 partner limits assumed): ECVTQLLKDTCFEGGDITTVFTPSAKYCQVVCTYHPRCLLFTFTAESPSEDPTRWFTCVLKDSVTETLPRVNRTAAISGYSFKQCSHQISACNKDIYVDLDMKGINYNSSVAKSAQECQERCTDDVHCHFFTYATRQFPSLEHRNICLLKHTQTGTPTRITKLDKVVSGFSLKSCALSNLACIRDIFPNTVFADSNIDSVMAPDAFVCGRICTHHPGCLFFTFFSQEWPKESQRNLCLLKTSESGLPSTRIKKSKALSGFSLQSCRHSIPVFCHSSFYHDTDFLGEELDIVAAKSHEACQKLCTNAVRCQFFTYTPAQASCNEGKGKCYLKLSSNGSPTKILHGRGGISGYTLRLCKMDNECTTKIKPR
Text: as §1, §2, §3

Another test has as its target plasmin (Homo sapiens, UniProt P00747). Briefly: Inhibition of plasmin, hydrolysis kinetics of chromogenic substrate S2288 (selectivity). Conditions: 30 μM compound, plasmin 10 nmol/L, S2288 200 µmol/L; for inhibition at 30 µM: read-out: Percent Inhibition at 30 μM ± SEM (n = 3), Plasmin.
Text: as §1, §2, §3

plasmin, sequence (P00747 581-810 limits assumed, species assumed): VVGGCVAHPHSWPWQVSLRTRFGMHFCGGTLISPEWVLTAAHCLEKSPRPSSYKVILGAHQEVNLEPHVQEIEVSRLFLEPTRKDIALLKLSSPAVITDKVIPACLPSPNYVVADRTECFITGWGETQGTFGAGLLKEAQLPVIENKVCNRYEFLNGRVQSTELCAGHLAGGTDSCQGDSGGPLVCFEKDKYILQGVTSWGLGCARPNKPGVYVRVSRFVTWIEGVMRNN
plasmin, sequence (P00747 97-580 partner limits assumed, species assumed): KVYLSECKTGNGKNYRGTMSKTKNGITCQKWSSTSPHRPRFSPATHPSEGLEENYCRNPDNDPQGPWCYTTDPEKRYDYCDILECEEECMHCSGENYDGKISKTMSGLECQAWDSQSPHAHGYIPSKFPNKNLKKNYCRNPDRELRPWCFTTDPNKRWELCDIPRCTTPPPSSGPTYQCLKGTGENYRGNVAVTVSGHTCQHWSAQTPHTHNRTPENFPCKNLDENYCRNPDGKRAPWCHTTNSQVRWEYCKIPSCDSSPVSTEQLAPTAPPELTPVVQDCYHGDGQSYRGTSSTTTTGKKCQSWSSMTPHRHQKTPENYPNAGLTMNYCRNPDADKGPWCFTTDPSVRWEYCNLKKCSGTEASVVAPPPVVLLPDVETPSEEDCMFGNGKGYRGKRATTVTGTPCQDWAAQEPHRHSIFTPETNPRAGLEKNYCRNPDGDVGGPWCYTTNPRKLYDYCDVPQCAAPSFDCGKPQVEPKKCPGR

With `COc1cc2c3c(c1)C(C)CC(C)(C)N3C(=O)/C2=N\Nc1nc(-c2ccc(Cl)cc2)cs1` (stereo not drawn) [5a, (Z)-1-(2-(4-(4-Chlorophenyl)thiazol-2-yl)hydrazineylidene)-8-methoxy-4,4,6-trimethyl-5,6-dihydro-4H-pyrrolo[3,2,1-ij]quinolin-2(1H)-one], the inhibition at 30 µM at factor Xa was -30 ± 7%; at factor XIa, -13 ± 11%.
With `COc1cc2c3c(c1)C(C)CC(C)(C)N3C(=O)/C2=N\Nc1nc(-c2ccc(F)cc2)cs1` (stereo not drawn) [5b, (Z)-1-(2-(4-(4-Fluorophenyl)thiazol-2-yl)hydrazineylidene)-8-methoxy-4,4,6-trimethyl-5,6-dihydro-4H-pyrrolo[3,2,1-ij]quinolin-2(1H)-one], the inhibition at 30 µM was -30 ± 10% at factor Xa and -6 ± 10% at factor XIa.
For `COc1cc2c3c(c1)C(C)CC(C)(C)N3C(=O)/C2=N\Nc1nc(-c2ccc(Br)cc2)cs1` (stereo not drawn) [5c, (Z)-1-(2-(4-(4-Bromophenyl)thiazol-2-yl)hydrazineylidene)-8-methoxy-4,4,6-trimethyl-5,6-dihydro-4H-pyrrolo[3,2,1-ij]quinolin-2(1H)-one], the inhibition at 30 µM was -40 ± 10% at factor Xa and -7 ± 8% at factor XIa.
Regarding `CC1CC(C)(C)N2C(=O)/C(=N\Nc3nc(-c4ccc(F)cc4)cs3)c3cc(Cl)cc1c32` (stereo not drawn) [5d, (Z)-8-Chloro-1-(2-(4-(4-fluorophenyl)thiazol-2-yl)hydrazineylidene)-4,4,6-trimethyl-5,6-dihydro-4H-pyrrolo[3,2,1-ij]quinolin-2(1H)-one], on plasmin, the “Percent Inhibition at 30 μM ± SEM (n = 3), Plasmin” value turned out to be 5 ± 1% and the inhibition at 30 µM was under 10%. Besides, on factor Xa, the “Percent Inhibition at 30 μM ± SEM (n = 3), Xa” value amounted to 98 ± 1%; the inhibition at 30 µM was 98 to 100%; the IC50 stood at 5.43 ± 0.02 µM. At factor XIa, the “Percent Inhibition at 30 μM ± SEM (n = 3), XIa” value is listed as 99%; the inhibition at 30 µM was in the range of 98 to 100%; the IC50 was determined as 7.7 ± 0.05 µM.
`COc1ccc(-c2csc(N/N=C3\C(=O)N4c5c3cc(Cl)cc5C(C)CC4(C)C)n2)cc1` (stereo not drawn) [5e, (Z)-8-Chloro-1-(2-(4-(4-methoxyphenyl)thiazol-2-yl)hydrazineylidene)-4,4,6-trimethyl-5,6-dihydro-4H-pyrrolo[3,2,1-ij]quinolin-2(1H)-one]: the inhibition at 30 µM at factor Xa was -8 ± 10%; at factor XIa it was -2 ± 11%.
Consider `COc1cccc(-c2csc(N/N=C3\C(=O)N4c5c3cc(F)cc5C(C)CC4(C)C)n2)c1` (stereo not drawn) [5f, (Z)-8-Fluoro-1-(2-(4-(3-methoxyphenyl)thiazol-2-yl)hydrazineylidene)-4,4,6-trimethyl-5,6-dihydro-4H-pyrrolo[3,2,1-ij]quinolin-2(1H)-one], for which the inhibition at 30 µM was -25 ± 9% on factor Xa and -11 ± 9% at factor XIa.
Take `CC1(c2ccccc2)CC(C)(C)N2C(=O)/C(=N\Nc3nc(-c4ccc(Cl)cc4)cs3)c3cc(F)cc1c32` (stereo not drawn) [5g, (Z)-1-(2-(4-(4-Chlorophenyl)thiazol-2-yl)hydrazineylidene)-8-fluoro-4,4,6-trimethyl-6-phenyl-5,6-dihydro-4H-pyrrolo[3,2,1-ij]quinolin-2(1H)-one]: the inhibition at 30 µM on factor Xa came out at 51 ± 18%; at factor XIa, 76 ± 3%.
For the compound `CC1(c2ccccc2)CC(C)(C)N2C(=O)/C(=N\Nc3nc(-c4ccc(Cl)cc4)cs3)c3cc(Br)cc1c32` (stereo not drawn) [5h, (Z)-8-Bromo-1-(2-(4-(4-chlorophenyl)thiazol-2-yl)hydrazineylidene)-4,4,6-trimethyl-6-phenyl-5,6-dihydro-4H-pyrrolo[3,2,1-ij]quinolin-2(1H)-one], on plasmin, the “Percent Inhibition at 30 μM ± SEM (n = 3), Plasmin” value stood at 8 ± 2% and the inhibition at 30 µM is under 10%. Further, on factor Xa, the “Percent Inhibition at 30 μM ± SEM (n = 3), Xa” value is given as 99 ± 1%; the inhibition at 30 µM is 98 to 100%; the IC50 was determined as 5.75 ± 0.02 µM. For the same compound, at factor XIa, the “Percent Inhibition at 30 μM ± SEM (n = 3), XIa” value is 100%; the inhibition at 30 µM was in the range of 98 to 100%; the IC50 came to 7.66 ± 0.08 µM.
In the case of `COc1ccc(-c2csc(N/N=C3\C(=O)N4c5c3cccc5C(C)(c3ccc(Cl)cc3)CC4(C)C)n2)cc1` (stereo not drawn) [5i, (Z)-6-(4-Chlorophenyl)-1-(2-(4-(4-methoxyphenyl)thiazol-2-yl)hydrazineylidene)-4,4,6-trimethyl-5,6-dihydro-4H-pyrrolo[3,2,1-ij]quinolin-2(1H)-one], the inhibition at 30 µM is -21 ± 9% on factor Xa and -14 ± 10% on factor XIa.
As for `COc1ccc(-c2csc(N/N=C3\C(=O)N4c5c3cc(Cl)cc5C(C)(c3ccc(Cl)cc3)CC4(C)C)n2)cc1` (stereo not drawn) [5j, (Z)-8-Chloro-6-(4-chlorophenyl)-1-(2-(4-(4-methoxyphenyl)thiazol-2-yl)hydrazineylidene)-4,4,6-trimethyl-5,6-dihydro-4H-pyrrolo[3,2,1-ij]quinolin-2(1H)-one], the inhibition at 30 µM was -3 ± 3% at factor Xa and -3 ± 6% on factor XIa.
`CC1(c2ccc(Cl)cc2)CC(C)(C)N2C(=O)/C(=N\Nc3nc(-c4ccc(Cl)cc4)cs3)c3cc(F)cc1c32` (stereo not drawn) [5k, (Z)-6-(4-Chlorophenyl)-1-(2-(4-(4-chlorophenyl)thiazol-2-yl)hydrazineylidene)-8-fluoro-4,4,6-trimethyl-5,6-dihydro-4H-pyrrolo[3,2,1-ij]quinolin-2(1H)-one]: the inhibition at 30 µM on factor Xa is -12 ± 11%; on factor XIa, 37 ± 8%.
The like results for `CC1(c2ccc(Cl)cc2)CC(C)(C)N2C(=O)/C(=N\Nc3nc(-c4ccc(F)cc4)cs3)c3cc(F)cc1c32` (stereo not drawn) [5l, (Z)-6-(4-Chlorophenyl)-8-fluoro-1-(2-(4-(4-fluorophenyl)thiazol-2-yl)hydrazineylidene)-4,4,6-trimethyl-5,6-dihydro-4H-pyrrolo[3,2,1-ij]quinolin-2(1H)-one] were, in that order, -4 ± 3% and -11 ± 7%.
For the compound `CC1(c2ccc(Cl)cc2)CC(C)(C)N2C(=O)/C(=N\Nc3nc(-c4cccc(Cl)c4)cs3)c3cc(F)cc1c32` (stereo not drawn) [5m, (Z)-6-(4-Chlorophenyl)-1-(2-(4-(3-chlorophenyl)thiazol-2-yl)hydrazineylidene)-8-fluoro-4,4,6-trimethyl-5,6-dihydro-4H-pyrrolo[3,2,1-ij]quinolin-2(1H)-one], the inhibition at 30 µM on factor Xa is -17 ± 11%; on factor XIa, -14 ± 7%.
`COc1cccc(-c2csc(N/N=C3\C(=O)N4c5c3cc(F)cc5C(C)(c3ccc(Cl)cc3)CC4(C)C)n2)c1` (stereo not drawn) [5n, (Z)-6-(4-Chlorophenyl)-8-fluoro-1-(2-(4-(3-methoxyphenyl)thiazol-2-yl)hydrazineylidene)-4,4,6-trimethyl-5,6-dihydro-4H-pyrrolo[3,2,1-ij]quinolin-2(1H)-one]: the inhibition at 30 µM on factor Xa is -2 ± 3%; at factor XIa it was -19 ± 8%.
As to `CC1(c2ccc(Cl)cc2)CC(C)(C)N2C(=O)/C(=N\Nc3nc(-c4ccccc4)cs3)c3cc(Br)cc1c32` (stereo not drawn) [5o, (Z)-8-Bromo-6-(4-chlorophenyl)-4,4,6-trimethyl-1-(2-(4-phenylthiazol-2-yl)hydrazineylidene)-5,6-dihydro-4H-pyrrolo[3,2,1-ij]quinolin-2(1H)-one], the inhibition at 30 µM is -4 ± 6% at factor Xa and -11 ± 12% at factor XIa.
